Measurements reported in patent US11883372B2, “Pharmaceutical composition” (MEXICHEM FLUOR S.A. DE C.V., priority 2016, dated 2024).

Experiment: In vitro aerosolization performance of MDI formulations (Next Generation Impactor, HPLC)
Format: physicochemical
Settings: for FPFED (%) fine particle fraction of the emitted dose / Fine particle Dose (μg ± S.D.) / MMAD ± GSD / Emitted Dose (μg ± S.D.): NGI at 30 L.min^−1; for MMAD ± GSD: in µm (unit assumed); for Emitted Dose (μg ± S.D.): nominal dose salmeterol xinafoate 25 μg, fluticasone propionate 125 μg
Procedure: The nominal dose of salmeterol xinafoate was 25 μg and the nominal dose of fluticasone propionate was 125 μg.
A 100 mm×4.6 mm Ascentis Express […] column with a 2.7 μm particle size was used for the analysis.

[1] = combination MDI formulation in HFA-134a
[2] = combination MDI formulation in HFA-152a

fine particle fractions of the emitted doses upon aerosolization, HFA-152a compared with HFA-134a (HFA-152a used as the propellant, versus HFA-134a (Tables 2 and 3)): significantly better
FPFED (%) fine particle fraction of the emitted dose [1]: 31.0%
Fine particle Dose (μg ± S.D.) [1]: 31.6 ± 3.3 µg
MMAD ± GSD [1]: 3.8 ± 2.5
Emitted Dose (μg ± S.D.) [1]: 101.7 ± 8.7 µg
FPFED (%) fine particle fraction of the emitted dose [2]: 40.0%
Fine particle Dose (μg ± S.D.) [2]: 43.5 ± 3.4 µg
MMAD ± GSD [2]: 2.9 ± 2.1
Emitted Dose (μg ± S.D.) [2]: 108.7 ± 1.1 µg
Structure (SMILES): CCC(=O)O[C@]1(C(=O)SCF)[C@H](C)C[C@H]2[C@@H]3C[C@H](F)C4=CC(=O)C=C[C@]4(C)[C@@]3(F)[C@@H](O)C[C@@]21C [Fluticasone Propionate, fluticasone propionate]
